# In the supplement of paper PMC11451515:
# Tested on: SEM cells
# Assay: cell viability relative to DMSO control; higher = less cytotoxic
# Conditions: 48 h
# How it was run: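 Viability is expressed as a percentage of DMSO wells within each plate, and cell-free wells serve as background. Seeding densities in the 1536-well plates (5 μl) were 500 cells/well for NOMO1 or SEM leukemia cells and 1000 cells/well for P12-Ichikawa. Each line was adapted for at least four passages in each medium. Library compounds in DMSO were pin-dosed at 47 μM to 0.79 nM (11 points, threefold), and CellTiter-Glo One luminescence was read after 48 h at 37°C.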
# [1] = HPLM + 10% dialyzed FBS, 0.000781 µM
# [2] = HPLM + 10% dialyzed FBS, 0.00234 µM
# [3] = HPLM + 10% dialyzed FBS, 0.00702 µM
# [4] = HPLM + 10% dialyzed FBS, 0.0211 µM
# [5] = HPLM + 10% dialyzed FBS, 0.0632 µM
# [6] = HPLM + 10% dialyzed FBS, 0.19 µM
# [7] = HPLM + 10% dialyzed FBS, 0.569 µM
# [8] = HPLM + 10% dialyzed FBS, 1.71 µM
# [9] = HPLM + 10% dialyzed FBS, 5.12 µM
# [10] = HPLM + 10% dialyzed FBS, 15.4 µM
# [11] = HPLM + 10% dialyzed FBS, 46.1 µM
# [12] = RPMI 5 mM glucose + 10% dialyzed FBS, 0.000781 µM
# [13] = RPMI 5 mM glucose + 10% dialyzed FBS, 0.00234 µM
# [14] = RPMI 5 mM glucose + 10% dialyzed FBS, 0.00702 µM
# [15] = RPMI 5 mM glucose + 10% dialyzed FBS, 0.0211 µM
# [16] = RPMI 5 mM glucose + 10% dialyzed FBS, 0.0632 µM
# [17] = RPMI 5 mM glucose + 10% dialyzed FBS, 0.19 µM
# [18] = RPMI 5 mM glucose + 10% dialyzed FBS, 0.569 µM
# [19] = RPMI 5 mM glucose + 10% dialyzed FBS, 1.71 µM
# [20] = RPMI 5 mM glucose + 10% dialyzed FBS, 5.12 µM
# [21] = RPMI 5 mM glucose + 10% dialyzed FBS, 15.4 µM
# [22] = RPMI 5 mM glucose + 10% dialyzed FBS, 46.1 µM
# [23] = RPMI 5 mM glucose + 10% FBS, 0.000781 µM
# [24] = RPMI 5 mM glucose + 10% FBS, 0.00234 µM
# [25] = RPMI 5 mM glucose + 10% FBS, 0.00702 µM
# [26] = RPMI 5 mM glucose + 10% FBS, 0.0211 µM
# [27] = RPMI 5 mM glucose + 10% FBS, 0.0632 µM
# [28] = RPMI 5 mM glucose + 10% FBS, 0.19 µM
# [29] = RPMI 5 mM glucose + 10% FBS, 0.569 µM
# [30] = RPMI 5 mM glucose + 10% FBS, 1.71 µM
# [31] = RPMI 5 mM glucose + 10% FBS, 5.12 µM
# [32] = RPMI 5 mM glucose + 10% FBS, 15.4 µM
# [33] = RPMI 5 mM glucose + 10% FBS, 46.1 µM
SMILES,cell viability [1] [%],cell viability [2] [%],cell viability [3] [%],cell viability [4] [%],cell viability [5] [%],cell viability [6] [%],cell viability [7] [%],cell viability [8] [%],cell viability [9] [%],cell viability [10] [%],cell viability [11] [%],cell viability [12] [%],cell viability [13] [%],cell viability [14] [%],cell viability [15] [%],cell viability [16] [%],cell viability [17] [%],cell viability [18] [%],cell viability [19] [%],cell viability [20] [%],cell viability [21] [%],cell viability [22] [%],cell viability [23] [%],cell viability [24] [%],cell viability [25] [%],cell viability [26] [%],cell viability [27] [%],cell viability [28] [%],cell viability [29] [%],cell viability [30] [%],cell viability [31] [%],cell viability [32] [%],cell viability [33] [%]
CN(C)C1=CC(=CC=C1)C\2=C\3C(=O)N(NC3=C/C(=O)N2C)C4=CC=CC=C4Cl,98.5,105,111,107,102,103,98.1,16.9,5.63,5.04,6.91,109,109,136,116,104,124,95.9,7.24,5.43,6.87,7.46,,,,,,,,,,,
O=C/1NC(=O)C(=C1C2=CN=C3C=CC=C[N]23)/C4=C[N]5CCN(CC6=C5C4=CC=C6)C(=O)N7CCOCC7,111,104,62.9,14.5,14.7,14.1,13.7,11.3,10.6,9.94,10.3,101,102,63.8,22.2,17.1,13.1,16.3,14,14.6,11.1,10.6,96.7,106,65.2,17.9,14.7,16.1,15,12.4,13.8,13.1,12.8
Cc1ccccc1C(OCCN(C)C)c1ccccc1 (stereo not given),102,95.2,106,101,105,119,120,115,117,117,99.1,99.3,109,116,120,124,125,122,130,121,115,114,105,108,128,115,98.9,109,124,121,107,103,99.4
CC(C)=CCC/C(C)=C/CC/C(C)=C/CC/C(C)=C/CC/C(C)=C/CC/C(C)=C/CC/C(C)=C/CC/C(C)=C/CC/C(C)=C/CO,94.8,109,103,99.7,91.2,98.9,115,77.8,100,85.5,119,99.4,99.6,95.6,102,105,100,108,61.6,78.4,63.4,89.3,109,105,121,96.9,104,111,114,60.7,107,60.5,102
COc1cc(CCc2cc(NC(=O)c3ccc(N4C[C@@H](C)N[C@@H](C)C4)cc3)n[nH]2)cc(OC)c1,109,125,131,128,127,52,85.8,77,64.4,29.8,18,122,122,124,125,101,52.1,96.2,87.7,64.1,31.6,18.5,111,113,117,123,96.1,47.8,80.7,66.2,63.5,29.7,19.5
c1ccc2c(Cc3c[nH]c4ccccc34)c[nH]c2c1,93.8,95.3,97.5,89.4,88.7,82.2,73.8,80.3,78.9,62.1,18.6,103,99,109,101,73.2,82.7,72.3,74.7,68.3,56.1,15.8,106,92.9,96,104,90.3,81.1,73.8,78.6,76.4,71.5,14.6
CN(C)c1ccc2nc3ccc(N(C)C)cc3[s+]c2c1,89.6,51.3,99.7,104,104,117,114,102,97,18.6,5.42,86.7,38.2,80,89.2,92.7,91.2,90.1,91.1,78.7,46.8,6.19,82.6,44.9,89.8,97.6,91.1,111,79.7,85.7,87.2,73.7,6.3
